Assay results: patent EP0083600B1, “Use of alkaloid derivatives for the manufacture of a medicament for the strengthening of the immune system and for the treatment of viral, bacterial and fungal infections” (Nowicky, Wassyl, priority 1981, dated 1983)

Assay: Biological test of toxicity (lethal dose)
Format: in vivo
Conditions: biologischer Test
Description: Weiterhin ließ sich nachweisen, daß in dem Präparat Ukrain (hier erfolgte die Umsetzung der Alkaloide von Chelidonium majus L. mit Thiophosphorsäuretriaziridid, gen. Thio-TEPA) keine freien Äthylengruppen des Thio-TEPA vorliegen. Dieser Nachweis wurde erbracht: • 1. durch eine chemische Analyse und • 2. dadurch, daß beim biologischen Test die Dosis letalis für Thio-TEPA bei 1 mg/kg Körpergewicht liegt, für das Präparat jedoch eine Dosis von 250 mg/kg Körpergewicht nicht toxisch ist.

In the case of `S=P(N1CC1)(N1CC1)N1CC1` [Thio-TEPA, Thiophosphorsäuretriaziridid], the Dosis letalis is reported as 1 mg/kg Körpergewicht.
